Target: T1, Human CaV2.2 channels (Homo sapiens, UniProt Q00975)
T1 construct: expressed in transfected cells; host or cells: HEK293
Test: Fluorescent (FLIPR) assay for CaV2.2 channels using potassium depolarization to induce channel opening
Format: cell-based
Conditions: 3 μM compound; 30 mM KCl assay buffer (inactivated channel state); HEK293 cells stably expressing human CaV2.2; read-out: Activity Category: %-Inhib (CaV2.2) @3 μM @30 mM KCl
In short: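 HEK293 cells stably co-expressing human CaV2.2 with α2δ and β subunits plus Kir2.3, Fluo-4 loaded; compounds preincubated 15 min at 25 °C in 1 mM or 30 mM KCl buffer (inactivated state), pH 7.4. Depolarized by KCl addition; baseline-normalized peak fluorescence (ex 480/em 535 nm) gave inhibition.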

T1 sequence (Q00975 whole entry): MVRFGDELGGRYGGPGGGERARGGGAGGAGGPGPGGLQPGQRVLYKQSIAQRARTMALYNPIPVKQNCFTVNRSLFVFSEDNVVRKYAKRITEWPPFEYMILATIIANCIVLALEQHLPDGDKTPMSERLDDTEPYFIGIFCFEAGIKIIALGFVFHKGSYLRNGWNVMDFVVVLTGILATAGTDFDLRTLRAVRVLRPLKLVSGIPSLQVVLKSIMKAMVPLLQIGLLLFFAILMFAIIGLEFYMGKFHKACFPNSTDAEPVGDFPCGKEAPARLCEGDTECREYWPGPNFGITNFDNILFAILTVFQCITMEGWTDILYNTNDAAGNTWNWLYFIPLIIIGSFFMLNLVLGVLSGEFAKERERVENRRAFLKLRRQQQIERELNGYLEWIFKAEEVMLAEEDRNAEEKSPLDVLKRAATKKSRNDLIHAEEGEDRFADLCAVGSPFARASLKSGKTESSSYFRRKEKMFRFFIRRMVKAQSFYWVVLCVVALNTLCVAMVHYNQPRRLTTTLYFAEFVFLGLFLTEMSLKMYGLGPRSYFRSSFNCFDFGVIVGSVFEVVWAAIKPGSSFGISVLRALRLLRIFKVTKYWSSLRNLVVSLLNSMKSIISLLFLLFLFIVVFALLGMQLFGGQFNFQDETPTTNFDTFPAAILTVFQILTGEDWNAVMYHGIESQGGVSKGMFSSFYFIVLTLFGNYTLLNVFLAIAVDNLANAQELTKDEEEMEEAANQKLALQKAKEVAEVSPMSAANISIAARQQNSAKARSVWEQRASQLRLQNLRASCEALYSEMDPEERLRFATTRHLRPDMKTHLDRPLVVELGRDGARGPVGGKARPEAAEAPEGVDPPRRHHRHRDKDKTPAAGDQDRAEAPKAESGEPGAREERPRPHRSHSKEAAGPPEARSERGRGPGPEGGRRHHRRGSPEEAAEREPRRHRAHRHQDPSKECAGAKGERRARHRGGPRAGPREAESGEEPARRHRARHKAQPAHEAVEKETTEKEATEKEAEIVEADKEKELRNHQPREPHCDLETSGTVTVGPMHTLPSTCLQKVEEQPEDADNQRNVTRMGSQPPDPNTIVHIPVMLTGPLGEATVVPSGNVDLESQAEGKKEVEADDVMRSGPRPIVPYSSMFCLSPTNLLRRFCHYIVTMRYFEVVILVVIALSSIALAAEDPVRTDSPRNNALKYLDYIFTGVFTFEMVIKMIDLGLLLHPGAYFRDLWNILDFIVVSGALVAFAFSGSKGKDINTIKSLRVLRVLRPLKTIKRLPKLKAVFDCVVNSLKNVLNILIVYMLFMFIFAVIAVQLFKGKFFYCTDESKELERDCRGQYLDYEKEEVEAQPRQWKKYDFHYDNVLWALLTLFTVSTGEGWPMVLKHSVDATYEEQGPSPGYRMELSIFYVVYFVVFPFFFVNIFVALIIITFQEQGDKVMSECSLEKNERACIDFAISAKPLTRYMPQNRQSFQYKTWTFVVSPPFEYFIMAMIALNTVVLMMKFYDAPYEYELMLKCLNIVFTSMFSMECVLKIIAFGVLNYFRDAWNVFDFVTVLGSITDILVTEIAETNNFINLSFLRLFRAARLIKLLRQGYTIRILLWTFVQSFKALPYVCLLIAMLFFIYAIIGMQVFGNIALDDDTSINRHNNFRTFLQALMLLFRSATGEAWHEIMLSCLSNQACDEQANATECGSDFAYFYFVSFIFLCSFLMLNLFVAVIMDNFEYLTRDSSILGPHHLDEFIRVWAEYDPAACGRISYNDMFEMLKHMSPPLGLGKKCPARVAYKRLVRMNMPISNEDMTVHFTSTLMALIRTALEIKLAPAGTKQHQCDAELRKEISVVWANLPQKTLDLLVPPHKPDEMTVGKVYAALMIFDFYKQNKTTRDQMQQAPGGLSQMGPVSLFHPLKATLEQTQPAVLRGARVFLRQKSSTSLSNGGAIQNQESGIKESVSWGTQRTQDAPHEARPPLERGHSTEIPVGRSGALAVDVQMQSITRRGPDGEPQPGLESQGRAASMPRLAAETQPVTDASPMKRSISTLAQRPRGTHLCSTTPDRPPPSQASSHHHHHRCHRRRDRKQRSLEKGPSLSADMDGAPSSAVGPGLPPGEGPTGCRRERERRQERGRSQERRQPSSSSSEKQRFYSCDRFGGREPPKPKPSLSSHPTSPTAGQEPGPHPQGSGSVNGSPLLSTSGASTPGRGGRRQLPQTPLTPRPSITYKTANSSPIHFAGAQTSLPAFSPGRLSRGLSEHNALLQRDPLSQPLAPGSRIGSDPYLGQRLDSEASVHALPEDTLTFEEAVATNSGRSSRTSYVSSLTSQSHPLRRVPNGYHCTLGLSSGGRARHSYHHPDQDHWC
T1 sequence (P54284 whole entry, further chain): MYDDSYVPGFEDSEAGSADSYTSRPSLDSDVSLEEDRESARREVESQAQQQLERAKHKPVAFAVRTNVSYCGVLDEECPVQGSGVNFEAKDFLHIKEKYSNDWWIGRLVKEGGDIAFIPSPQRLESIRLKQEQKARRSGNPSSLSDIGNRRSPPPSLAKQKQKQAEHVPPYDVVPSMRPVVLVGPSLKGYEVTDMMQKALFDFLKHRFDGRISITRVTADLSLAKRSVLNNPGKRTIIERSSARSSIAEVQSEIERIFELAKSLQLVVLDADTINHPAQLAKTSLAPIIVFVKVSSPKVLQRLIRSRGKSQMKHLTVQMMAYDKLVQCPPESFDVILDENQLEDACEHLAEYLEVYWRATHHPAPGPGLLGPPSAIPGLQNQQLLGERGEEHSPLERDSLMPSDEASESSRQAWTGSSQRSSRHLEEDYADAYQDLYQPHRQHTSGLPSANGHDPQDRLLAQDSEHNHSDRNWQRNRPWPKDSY
T1 sequence (P54289 25-1103, further chain): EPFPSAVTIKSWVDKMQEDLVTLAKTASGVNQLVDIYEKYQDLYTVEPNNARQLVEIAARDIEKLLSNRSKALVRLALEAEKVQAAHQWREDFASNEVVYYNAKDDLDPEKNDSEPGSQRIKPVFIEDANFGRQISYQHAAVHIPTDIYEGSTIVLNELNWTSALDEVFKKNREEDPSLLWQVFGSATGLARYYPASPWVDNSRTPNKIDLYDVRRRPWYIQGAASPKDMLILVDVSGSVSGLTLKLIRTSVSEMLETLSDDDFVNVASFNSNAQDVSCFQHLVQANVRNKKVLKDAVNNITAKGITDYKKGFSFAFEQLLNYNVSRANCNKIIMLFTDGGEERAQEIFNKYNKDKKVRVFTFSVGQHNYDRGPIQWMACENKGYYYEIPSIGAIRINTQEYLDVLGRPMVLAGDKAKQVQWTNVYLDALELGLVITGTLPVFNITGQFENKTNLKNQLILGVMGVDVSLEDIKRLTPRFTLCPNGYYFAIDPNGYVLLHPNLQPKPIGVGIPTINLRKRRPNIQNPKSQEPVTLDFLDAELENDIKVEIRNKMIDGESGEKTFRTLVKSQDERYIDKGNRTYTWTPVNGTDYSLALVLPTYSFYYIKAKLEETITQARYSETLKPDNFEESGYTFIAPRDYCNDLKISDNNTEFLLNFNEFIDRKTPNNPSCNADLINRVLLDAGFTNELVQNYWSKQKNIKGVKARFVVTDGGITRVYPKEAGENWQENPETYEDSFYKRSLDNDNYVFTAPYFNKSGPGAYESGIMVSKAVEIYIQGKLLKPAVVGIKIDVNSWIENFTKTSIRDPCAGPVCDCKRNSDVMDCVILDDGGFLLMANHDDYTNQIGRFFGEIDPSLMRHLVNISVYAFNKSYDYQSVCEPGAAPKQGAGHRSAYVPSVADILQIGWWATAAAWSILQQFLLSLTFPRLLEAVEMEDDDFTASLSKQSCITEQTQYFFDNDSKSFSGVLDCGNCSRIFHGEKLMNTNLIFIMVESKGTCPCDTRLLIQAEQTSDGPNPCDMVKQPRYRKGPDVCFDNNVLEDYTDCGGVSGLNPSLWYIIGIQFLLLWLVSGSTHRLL

| SMILES | inhibition at 3 µM [%] |
| --- | --- |
| Cc1c(-c2ccc(Cl)cn2)c(C(=O)N(C)Cc2ccnn2C)n(C(C)C)c1C(F)(F)F [Example 114, 3-(5-Chloro-pyridin-2-yl)-1-isopropyl-N,4-dimethyl-N-[(2-methyl-2H-pyrazol-3-yl)-methyl]-5-(trifluoromethyl)-1H-pyrrole-2-carboxylic acid amide] | 40 to 75 |
| Cc1c(-c2ccc(Cl)cc2)c(C(=O)N(C)C2CCNC2=O)n(C(C)C)c1C(F)(F)F (centres unmarked) [Example 115, 3-(4-Chlorophenyl)-1-isopropyl-N,4-dimethyl-N-(2-oxo-pyrrolidin-3-yl)-5-(trifluoromethyl)-1H-pyrrole-2-carboxylic acid amide] | 75 to 95 |
| Cc1c(-c2ccc(Cl)cn2)c(C(=O)N(C)CC(C)(C)C(N)=O)n(C(C)C)c1C(F)(F)F [Example 116, N-(2-Carbamoyl-2-methyl-propyl)-3-(5-chloro-pyridin-2-yl)-1-isopropyl-N,4-dimethyl-5-(trifluoromethyl)-1H-pyrrole-2-carboxylic acid amide] | 40 to 75 |
| Cc1c(-c2ccc(Cl)cn2)c(C(=O)N(C)CC(C)(C)C#N)n(C(C)C)c1C(F)(F)F [Example 117, 3-(5-Chloro-pyridin-2-yl)-N-(2-cyano-2-methyl-propyl)-1-isopropyl-N,4-dimethyl-5-(trifluoromethyl)-1H-pyrrole-2-carboxylic acid amide] | 75 to 95 |
| Cc1c(-c2ccc(Cl)cn2)c(C(=O)N(C)CCS(C)(=O)=O)n(C(C)C)c1C(F)(F)F [Example 118, 3-(5-Chloro-pyridin-2-yl)-1-isopropyl-N,4-dimethyl-N-(2-methylsulfonyl-ethyl)-5-(trifluoromethyl)-1H-pyrrole-2-carboxylic acid amide] | 40 to 75 |
| Cc1c(-c2ccc(Cl)cn2)c(C(=O)N(C)C2CCNC2=O)n(C(C)C)c1C(F)(F)F (centres unmarked) [Example 119, 3-(5-Chloro-pyridin-2-yl)-1-isopropyl-N,4-dimethyl-N-(2-oxo-pyrrolidin-3-yl)-5-(trifluoromethyl)-1H-pyrrole-2-carboxylic acid amide] | 40 to 75 |
| Cc1c(-c2ccc(Cl)cn2)c(C(=O)N(C)C(C)C)n(C(C)C)c1C(F)(F)F [Example 120, 3-(5-Chloro-pyridin-2-yl)-N,1-diisopropyl-N,4-dimethyl-5-(trifluoromethyl)-1H-pyrrole-2-carboxylic acid amide] | 75 to 95 |
| Cc1c(-c2ncc(Cl)cn2)c(C(=O)N2CCOC(C)(C)C2)n(C(C)C)c1C(F)(F)F [Example 121, [3-(5-Chloro-pyrimidin-2-yl)-1-isopropyl-4-methyl-5-(trifluoromethyl)-1H-pyrrol-2-yl]-(2,2-dimethyl-morpholin-4-yl)-methanone] | 40 to 75 |
| Cc1c(-c2ncc(Cl)cn2)c(C(=O)N(C)Cc2ccnn2C)n(C(C)C)c1C(F)(F)F [Example 122, 3-(5-Chloro-pyrimidin-2-yl)-1-isopropyl-N,4-dimethyl-N-[(2-methyl-2H-pyrazol-3-yl)-methyl]-5-(trifluoromethyl)-1H-pyrrole-2-carboxylic acid amide] | 40 to 75 |
| Cc1cc(CN(C)C(=O)c2c(-c3ncc(Cl)cn3)c(C)c(C(F)(F)F)n2C(C)C)no1 [Example 123, 3-(5-Chloro-pyrimidin-2-yl)-1-isopropyl-N,4-dimethyl-N-[(5-methyl-isoxazol-3-yl)-methyl]-5-(trifluoromethyl)-1H-pyrrole-2-carboxylic acid amide] | 75 to 95 |
| Cc1c(-c2ncc(Cl)cn2)c(C(=O)N(C)CC(C)(C)C#N)n(C(C)C)c1C(F)(F)F [Example 126, 3-(5-Chloro-pyrimidin-2-yl)-N-(2-cyano-2-methyl-propyl)-1-isopropyl-N,4-dimethyl-5-(trifluoromethyl)-1H-pyrrole-2-carboxylic acid amide] | 40 to 75 |
| Cc1c(-c2ncc(Cl)cn2)c(C(=O)N(C)CCS(C)(=O)=O)n(C(C)C)c1C(F)(F)F [Example 127, 3-(5-Chloro-pyrimidin-2-yl)-1-isopropyl-N,4-dimethyl-N-(2-methylsulfonyl-ethyl)-5-(trifluoromethyl)-1H-pyrrole-2-carboxylic acid amide] | 30 to 40 |
| Cc1c(-c2ncc(Cl)cn2)c(C(=O)N(C)C(C)C)n(C(C)C)c1C(F)(F)F [Example 128, 3-(5-Chloro-pyrimidin-2-yl)-N,1-diisopropyl-N,4-dimethyl-5-(trifluoromethyl)-1H-pyrrole-2-carboxylic acid amide] | 40 to 75 |
| Cc1c(-c2ccc(Cl)cn2)c(C(=O)N2CCN(C(=O)NC(C)(C)C)CC2)n(C(C)C)c1C(F)(F)F [Example 129, N-tert-Butyl-4-[3-(5-chloro-pyridin-2-yl)-1-isopropyl-4-methyl-5-(trifluoromethyl)-1H-pyrrole-2-carbonyl]-piperazine-1-carboxylic acid amide] | 75 to 95 |
| Cc1c(-c2ccc(Cl)cn2)c(C(=O)N2CC[S+]([O-])C(C)(C)C2)n(C(C)C)c1C(F)(F)F (centres unmarked) [Example 130, [3-(5-Chloro-pyridin-2-yl)-1-isopropyl-4-methyl-5-(trifluoromethyl)-1H-pyrrol-2-yl]-(2,2-dimethyl-1-oxo-[1,4]thiazinan-4-yl)-methanone] | 40 to 75 |
| Cc1c(-c2ccc(Cl)cc2)c(C(=O)N2CCN(C(=O)NC(C)(C)C)CC2)n(C(C)C)c1C(F)(F)F [Example 131, N-tert-Butyl-4-[3-(4-chlorophenyl)-1-isopropyl-4-methyl-5-(trifluoromethyl)-1H-pyrrole-2-carbonyl]-piperazine-1-carboxylic acid amide] | 75 to 95 |
| Cc1c(-c2ccc(Cl)cc2)c(C(=O)N(C)C(CO)CC(C)C)n(C(C)C)c1C(F)(F)F (centres unmarked) [Example 132, 3-(4-Chlorophenyl)-N-[1-(hydroxymethyl)-3-methyl-butyl]-1-isopropyl-N,4-dimethyl-5-(trifluoromethyl)-1H-pyrrole-2-carboxylic acid amide] | 40 to 75 |
| Cc1c(-c2ccc(Cl)cc2)c(C(=O)N(C)C(C)C(=O)NC(C)(C)C)n(C(C)C)c1C(F)(F)F (centres unmarked) [Example 133, N-[1-(tert-Butyl-carbamoyl)-ethyl]-3-(4-chlorophenyl)-1-isopropyl-N,4-dimethyl-5-(trifluoromethyl)-1H-pyrrole-2-carboxylic acid amide] | 40 to 75 |
| Cc1c(-c2ccc(Cl)cn2)c(C(=O)N(C)C2CCNCC2(C)C)n(C(C)C)c1C(F)(F)F (centres unmarked) [Example 134, 3-(5-Chloro-pyridin-2-yl)-N-(3,3-dimethyl-piperidin-4-yl)-1-isopropyl-N,4-dimethyl-5-(trifluoromethyl)-1H-pyrrole-2-carboxylic acid amide] | 40 to 75 |
| Cc1c(-c2ccc(Cl)cc2)c(C(=O)N(C)C2CCNCC2(C)C)n(C(C)C)c1C(F)(F)F (centres unmarked) [Example 135, 3-(4-Chlorophenyl)-N-(3,3-dimethyl-piperidin-4-yl)-1-isopropyl-N,4-dimethyl-5-(trifluoromethyl)-1H-pyrrole-2-carboxylic acid amide] | 40 to 75 |
